Measured values from US8188059B2, “Compounds and methods for modulating expression of GCGR” (Isis Pharmaceuticals, Inc., priority 2006, dated 2012).

Legend:
Format in all cases: in vivo, mouse
GCGR mRNA = GCGR mRNA levels in liver of C57/BL6 mice, single i.p. dose (Example 4, Tables 35-41); details: 48 h
Procedure: (§1) Eight-week old male C57/BL6 mice (Jackson Laboratory, Bar Harbor, Me.) were administered a single dose of GCGR oligonucleotide by intraperitoneal injection at a concentration of […]. Each dose group consisted of four animals. Shown in Table 31 are the sequences, motifs and conjugates of the GCGR antisense compounds used in this study. Bolded residues indicate 2′-O-methoxyethyl (2′-MOE) moieties. All compounds comprise phosphorothioate internucleoside linkages throughout and each cytosine is replaced with 5-methylcytosine. ISIS 386626, ISIS 386627 and ISIS 386628 further comprise a C16 conjugate group attached to the 2′-O position of the sugar via a diamide linkage (2′-OCH2C(═O)N(H)(CH2)4N(H)C(═O)—(CH2)15CH3). GCGR antisense compounds target published GCGR sequences, including Genbank® Accession No. BC031885.1 (SEQ ID NO: 7).
(§2) Mice were sacrificed 48 hours following injection to determine serum transaminase levels (Table 32); liver, white adipose tissue (WAT), spleen and kidney weight (Table 33); cholesterol, triglyceride and glucose levels (Table 34); GCGR mRNA levels (Tables 35-41); and full-length and total oligonucleotide concentration in liver and kidney (Table 42). Endpoints were assessed using methods described herein and well known to those of ordinary skill in the art. Data is included from a pre-treatment bleed (Pre-Bleed) and post-treatment bleed (Post-Bleed).
To determine whether the phenotypic changes shown above correlated with a decrease in GCGR mRNA, treated animals were evaluated for levels of target mRNA in liver by real time PCR according to methods described herein. Tables 35 to 41 show results from direct comparisons of the antisense compounds targeting GCGR nucleic acid for their effect on target expression. Results are expressed as percent of saline control.

[1] = ALT & AST levels, C57/BL6 mice (Example 4, Table 32); details: for ALT Pre-Bleed / AST Pre-Bleed: pre-treatment bleed; for ALT Post-Bleed / AST Post-Bleed: 48 hours following injection
Procedure: as §1, §2

[2] = Organ weights: liver, white adipose tissue, spleen, kidney (Example 4, Table 33); details: 48 h, C57/BL6 mice
Procedure: as §1, §2

[3] = Triglyceride, cholesterol and glucose levels, pre-bleed and post-bleed (Example 4, Table 34); parameters: TRIG Pre-Bleed / TRIG Post-Bleed / CHOL Pre-Bleed / CHOL Post-Bleed / Glucose Pre-Bleed / Glucose Post-Bleed: unit not given here; details: C57/BL6 mice; for CHOL Pre-Bleed / Glucose Pre-Bleed / TRIG Pre-Bleed: pre-treatment bleed; for CHOL Post-Bleed / Glucose Post-Bleed / TRIG Post-Bleed: post-treatment bleed, 48 h
Procedure: as §1, §2

[4] = Total and full-length antisense compound concentrations in liver and kidney (Example 4, Table 42); details: C57/BL6 mice; single i.p. dose; 48 h; dose not given
Procedure: as §1, §2
Treatment with the 2-10-2 MOE gapmers led to a significant dose-dependent decrease in GCGR mRNA expression. […] To determine whether the observed increase in efficiency with the short antisense compounds is due to an increase in antisense compound accumulation, full-length and total antisense compound concentration in the liver and kidney were determined.

Q: Which “GCGR mRNA levels in liver” value (GCGR mRNA; 6.25 mg/kg single i.p., Table 38 comparison ISIS 148364 & ISIS 386628) does the source give for “386628 (antisense TGTCTTGCTGCTTT; chemistry not fully specified) [compound 386628]” here?
A: The value was 77% of saline control.

Q: What about the “GCGR mRNA levels in liver” value (GCGR mRNA; 6.25 mg/kg single i.p., Table 41 comparison ISIS 386628 & ISIS 386594) of the same substance?
A: The value was 97% of saline control.

Q: What about the “GCGR mRNA levels in liver” value (GCGR mRNA; 12.5 mg/kg single i.p., Table 38 comparison ISIS 148364 & ISIS 386628) of the same substance?
A: The value was 53% of saline control.

Q: And the “GCGR mRNA levels in liver” value (GCGR mRNA; 12.5 mg/kg single i.p., Table 41 comparison ISIS 386628 & ISIS 386594)?
A: Its value is 38% of saline control.

Q: And the “GCGR mRNA levels in liver” value (GCGR mRNA; 25 mg/kg single i.p., Table 38 comparison ISIS 148364 & ISIS 386628)?
A: Its value is 18% of saline control.

Q: What about the “GCGR mRNA levels in liver” value (GCGR mRNA; 25 mg/kg single i.p., Table 41 comparison ISIS 386628 & ISIS 386594) of the same substance?
A: Its value is 13% of saline control.

Q: What about the “GCGR mRNA levels in liver” value (GCGR mRNA; 50 mg/kg single i.p., Table 38 comparison ISIS 148364 & ISIS 386628) of the same substance?
A: The value was 2% of saline control.

Q: What about the “GCGR mRNA levels in liver” value (GCGR mRNA; 50 mg/kg single i.p., Table 41 comparison ISIS 386628 & ISIS 386594) of the same substance?
A: The value was 4% of saline control.

Q: What about the “ALT Pre-Bleed” value ([1]; 6.25 mg/kg dose group) of the same substance?
A: Its value is 22 IU/L.

Q: What about the “AST Pre-Bleed” value ([1]; 6.25 mg/kg dose group) of the same substance?
A: The value was 40 IU/L.

Q: And the “ALT Pre-Bleed” value ([1]; 12.5 mg/kg dose group)?
A: Its value is 28 IU/L.

Q: What about the “AST Pre-Bleed” value ([1]; 12.5 mg/kg dose group) of the same substance?
A: The value was 42 IU/L.

Q: And the “ALT Pre-Bleed” value ([1]; 25 mg/kg dose group)?
A: The value was 24 IU/L.

Q: And the “AST Pre-Bleed” value ([1]; 25 mg/kg dose group)?
A: The value was 40 IU/L.

Q: What about the “ALT Pre-Bleed” value ([1]; 50 mg/kg dose group) of the same substance?
A: Its value is 28 IU/L.

Q: What about the “AST Pre-Bleed” value ([1]; 50 mg/kg dose group) of the same substance?
A: The value was 44 IU/L.

Q: And the “ALT Post-Bleed” value ([1]; single i.p. dose 6.25 mg/kg)?
A: Its value is 29 IU/L.

Q: And the “AST Post-Bleed” value ([1]; single i.p. dose 6.25 mg/kg)?
A: Its value is 59 IU/L.

Q: And the “ALT Post-Bleed” value ([1]; single i.p. dose 12.5 mg/kg)?
A: Its value is 35 IU/L.

Q: What about the “AST Post-Bleed” value ([1]; single i.p. dose 12.5 mg/kg) of the same substance?
A: The value was 75 IU/L.

Q: And the “ALT Post-Bleed” value ([1]; single i.p. dose 25 mg/kg)?
A: Its value is 32 IU/L.

Q: And the “AST Post-Bleed” value ([1]; single i.p. dose 25 mg/kg)?
A: Its value is 57 IU/L.

Q: And the “ALT Post-Bleed” value ([1]; single i.p. dose 50 mg/kg)?
A: Its value is 68 IU/L.

Q: What about the “AST Post-Bleed” value ([1]; single i.p. dose 50 mg/kg) of the same substance?
A: Its value is 76 IU/L.

Q: What about the “Organ weight: Kidney” value ([2]; 6.25 mg/kg single i.p.) of the same substance?
A: The value was 102 % saline control.

Q: What about the “Organ weight: Liver” value ([2]; 6.25 mg/kg single i.p.) of the same substance?
A: Its value is 98 % saline control.

Q: And the “Organ weight: Spleen” value ([2]; 6.25 mg/kg single i.p.)?
A: The value was 151 % saline control.

Q: What about the “Organ weight: WAT” value ([2]; 6.25 mg/kg single i.p.) of the same substance?
A: Its value is 106 % saline control.

Q: What about the “Organ weight: Kidney” value ([2]; 12.5 mg/kg single i.p.) of the same substance?
A: Its value is 99 % saline control.

Q: And the “Organ weight: Liver” value ([2]; 12.5 mg/kg single i.p.)?
A: The value was 101 % saline control.

Q: And the “Organ weight: Spleen” value ([2]; 12.5 mg/kg single i.p.)?
A: Its value is 114 % saline control.

Q: What about the “Organ weight: WAT” value ([2]; 12.5 mg/kg single i.p.) of the same substance?
A: The value was 111 % saline control.

Q: What about the “Organ weight: Kidney” value ([2]; 25 mg/kg single i.p.) of the same substance?
A: Its value is 109 % saline control.

Q: And the “Organ weight: Liver” value ([2]; 25 mg/kg single i.p.)?
A: The value was 102 % saline control.

Q: What about the “Organ weight: Spleen” value ([2]; 25 mg/kg single i.p.) of the same substance?
A: The value was 113 % saline control.

Q: And the “Organ weight: WAT” value ([2]; 25 mg/kg single i.p.)?
A: Its value is 97 % saline control.

Q: What about the “Organ weight: Kidney” value ([2]; 50 mg/kg single i.p.) of the same substance?
A: The value was 99 % saline control.

Q: And the “Organ weight: Liver” value ([2]; 50 mg/kg single i.p.)?
A: The value was 104 % saline control.

Q: And the “Organ weight: Spleen” value ([2]; 50 mg/kg single i.p.)?
A: Its value is 126 % saline control.

Q: And the “Organ weight: WAT” value ([2]; 50 mg/kg single i.p.)?
A: The value was 100 % saline control.

Q: What about the “CHOL Pre-Bleed” value ([3]; 6.25 mg/kg group) of the same substance?
A: The value was 83.

Q: And the “Glucose Pre-Bleed” value ([3]; 6.25 mg/kg group)?
A: Its value is 228.

Q: And the “TRIG Pre-Bleed” value ([3]; 6.25 mg/kg group)?
A: The value was 117.

Q: What about the “CHOL Post-Bleed” value ([3]; 6.25 mg/kg single i.p.) of the same substance?
A: Its value is 85.

Q: And the “Glucose Post-Bleed” value ([3]; 6.25 mg/kg single i.p.)?
A: Its value is 229.

Q: And the “TRIG Post-Bleed” value ([3]; 6.25 mg/kg single i.p.)?
A: Its value is 121.

Q: And the “CHOL Pre-Bleed” value ([3]; 12.5 mg/kg group)?
A: Its value is 90.

Q: And the “Glucose Pre-Bleed” value ([3]; 12.5 mg/kg group)?
A: The value was 231.

Q: And the “TRIG Pre-Bleed” value ([3]; 12.5 mg/kg group)?
A: The value was 90.

Q: And the “CHOL Post-Bleed” value ([3]; 12.5 mg/kg single i.p.)?
A: Its value is 94.

Q: And the “Glucose Post-Bleed” value ([3]; 12.5 mg/kg single i.p.)?
A: Its value is 240.

Q: And the “TRIG Post-Bleed” value ([3]; 12.5 mg/kg single i.p.)?
A: Its value is 123.

Q: And the “CHOL Pre-Bleed” value ([3]; 25 mg/kg group)?
A: Its value is 84.

Q: And the “Glucose Pre-Bleed” value ([3]; 25 mg/kg group)?
A: The value was 210.

Q: And the “TRIG Pre-Bleed” value ([3]; 25 mg/kg group)?
A: The value was 102.

Q: What about the “CHOL Post-Bleed” value ([3]; 25 mg/kg single i.p.) of the same substance?
A: The value was 85.

Q: And the “Glucose Post-Bleed” value ([3]; 25 mg/kg single i.p.)?
A: Its value is 223.

Q: What about the “TRIG Post-Bleed” value ([3]; 25 mg/kg single i.p.) of the same substance?
A: The value was 129.

Q: And the “CHOL Pre-Bleed” value ([3]; 50 mg/kg group)?
A: The value was 88.

Q: And the “Glucose Pre-Bleed” value ([3]; 50 mg/kg group)?
A: Its value is 209.

Q: What about the “TRIG Pre-Bleed” value ([3]; 50 mg/kg group) of the same substance?
A: Its value is 102.

Q: What about the “CHOL Post-Bleed” value ([3]; 50 mg/kg single i.p.) of the same substance?
A: The value was 95.

Q: What about the “Glucose Post-Bleed” value ([3]; 50 mg/kg single i.p.) of the same substance?
A: Its value is 232.

Q: What about the “TRIG Post-Bleed” value ([3]; 50 mg/kg single i.p.) of the same substance?
A: Its value is 98.

Q: And the “Full-length antisense compound concentration, Kidney” value [4]?
A: The value was 305 µg/g.

Q: What about the “Full-length antisense compound concentration, Liver” value [4] of the same substance?
A: Its value is 202 µg/g.

Q: What about the “Total antisense compound concentration, Kidney” value [4] of the same substance?
A: Its value is 496 µg/g.

Q: What about the “Total antisense compound concentration, Liver” value [4] of the same substance?
A: The value was 286 µg/g.
